Measurements published in patent US20100104628A1, “METHOD OF TREATING NEUROBLASTOMA” (priority 2007, published 2010).
Where “and” joins values, the source holds several entries; their conditions need not be identical. Equal values may be shown once. Read-outs that look alike come from different tables or passages of the source.

Assays:
SK—N-BE(2c) (high NET) = experiment: Glutathione depletion in vitro, SK-N-BE(2c); type: cell-based; conditions: for glutathione depletion compared to controls: 7 hrs
Description: (§1) The NB cell line SK—N-BE(2c) (high net) was treated with MIBG, MIBG-disulfide dimer (MIGB-S—S-MIBG), chloromethyl-MIBG (cmMIBG), and BSO. For comparison, the human breast cancer line MCF7 (no NET) was treated with chloromethyl-MIBG and BSO. At specific times, intracellular glutathione in drug-treated cells was determined relative to that in untreated cells (control).
SK—N-BE(2c) (high NET) cells were treated with a single concentration of chloromethyl-MIBG (25 μM at t=0). Glutathione concentrations in treated and untreated cells were measured at t=0.5, 1, 2, 3 and 4 hrs. Glutathione levels in drug-treated cells progressively fell, with a concentration 50% that of control at t 4 hrs (FIG. 10B).
(§2) Cells were exposed to 5 μM chloromethyl-MIBG (cmMIBG), 25 μM BSO and a combination of 5 μM chloromethyl-MIBG+25 μM BSO (both) for 7 hrs. Compared to controls, chloromethyl-MIBG alone depleted glutathione by about 30% in SK—N—Be(2c) cells and 8% in MCF7. BSO, as expected, depleted MCF7 and SK—N—Be(2c) by similar amounts (42 and 54% of controls, respectively). In combination studies, chloromethyl-MIBG+BSO depleted levels by about 85% in the SK—N—Be(2c) cells and had much less effect on the MCF7 cells with glutathione reduced by 49% relative to controls.

MCF7 (no NET) = experiment: Glutathione depletion in vitro, MCF7; type: cell-based, human; conditions: 7 hrs
Description: as §1, §2

[1] = Stability / reaction kinetics by proton NMR (half-life); type: physicochemical; conditions: for Half-life / Half-life w/10 eq GSH: 37° C., pH 7.4, BisTris buffer, 5% DMSO
Text: Proton NMR was used to determine the half-lives for chloro- and bromomethyl-MIBG (Table 1). These analogs react with nucleophiles via an SN2 mechanism; therefore, the rate of the reaction depends on the strength and concentration of the nucleophile as well as the nature of the leaving group. Thus, the half-lives of the analogs are predictably longer in buffer than they are in buffer with added glutathione (a relatively strong nucleophile) and, under the same conditions, the bromo analog (better leaving group) reacts faster than the chloro analog.

NET = biological target: T1, NET (Homo sapiens, UniProt P23975); experiment: NET competitive binding assay ([125I]MIBG displacement, SK-N-SH cells); conditions: 5 μM test compound, 2 hr incubation
T1 construct: endogenous in cells; host or cells: SK-N-SH neuroblastoma cells
Description: An assay to assess binding of various MIBG-analogs to the NET was performed by published methods (Vaidynathan et al, Nucl. Med. Commun. 25:947-955 (2004), Vaidynathan et al, Bioorg. Med. Chem. 12:1649-1656 (2004), Vaidynathan et al, Bioconjugate Chem. 12:798-806 (2001), Vaidynathan et al, Eur. J. Nucl. Med. Mol. Imaging 31:1362-1370 (2004)). In brief, neuroblastoma SK—N—SH cells (moderate levels of NET) were treated with [^125I]MIBG and with increasing concentrations of unlabeled MIBG or MIBG-analogs. At the end of a 2 hr incubation and appropriate work-up, the cell-bound radioactivity was counted. Total cell-bound radioactivity minus non-specific cell-bound radioactivity gave a value for specific binding which was plotted in FIG. 9 against the concentration of test compounds. At 5 μM, cold MIBG displaced “100%” of the labeled-MIBG (i.e., “zero” cell-bound radioactivity). At 5 μM, chloromethyl-MIBG displaced 83%; the disulfide MIBG-SS-ethyl and the ester MIBG-phenylbutyrate displaced 50-55%; and hydroxymethyl-MIBG displaced 27%.

SK-N-BE(2c) (NET ++++) = experiment: cells; type: cell-based
SK-N-MC (NET ++) = experiment: Cytotoxicity, MTT assay, SK-N-MC; type: cell-based; conditions: 24 hr assay, 1% EtOH
MCF7 (NET 0) = experiment: in vitro; type: cell-based, human
IMR32 (NET 0/+) = experiment: Cytotoxicity, MTT assay, IMR32; type: cell-based; conditions: 24 hr assay, 1% EtOH
SK-N-SH (NET ++) = experiment: Cytotoxicity, MTT assay, SK-N-SH; type: cell-based; conditions: read-out: Cytotoxicity IC50
[2] = Maximum tolerated dose (MTD) study in mice; type: in vivo
Description: The MTD study utilized 4 groups of 5 HRLN female nu/nu mice. Mice in each group were injected i.v. with a single dose of chloromethyl-MIBG in 1% DMSO in water [5, 10, 15, or 20 mg/kg (drug/animal)]. Drug solutions were made fresh at room temperature and injections were completed within 20 minutes of making the drug solution (under these conditions, the half-life of chloromethyl-MIBG was estimated to be >10 hrs). The dosing volume was 0.20 mL/20 g mouse (adjusted accordingly for body weight). Animals were followed for 21 days post-injection; body weight was monitored daily for 5 days and then biweekly. The “endpoint MTD” was defined as a mean weight loss of >20% or death of >10% of animals in a group.

[3] = 24 hr assay, 1% EtOH, read-out: Cytotoxicity IC50
[4] = 24 hr assay, single agent, 1% DMSO, read-out: Cytotoxicity IC50
[5] = 48 hr assay (24 h exposure + 24 h recovery), Table 3, read-out: Cytotoxicity IC50
[6] = 48 hr assay, + 1.5 μM desipramine (40 min pre-treatment, then co-incubation), read-out: Cytotoxicity IC50, NET inhibition experiment
[7] = 48 hr assay, single agent, Table 4, read-out: Cytotoxicity IC50
[8] = 48 hr assay, without desipramine, read-out: Cytotoxicity IC50, NET inhibition experiment
[9] = 48 hr assay (24 h exposure + 24 h recovery), Table 3
[10] = groups dosed at 10, 15 and 20 mg/kg i.v.

T1 sequence (P23975 whole entry): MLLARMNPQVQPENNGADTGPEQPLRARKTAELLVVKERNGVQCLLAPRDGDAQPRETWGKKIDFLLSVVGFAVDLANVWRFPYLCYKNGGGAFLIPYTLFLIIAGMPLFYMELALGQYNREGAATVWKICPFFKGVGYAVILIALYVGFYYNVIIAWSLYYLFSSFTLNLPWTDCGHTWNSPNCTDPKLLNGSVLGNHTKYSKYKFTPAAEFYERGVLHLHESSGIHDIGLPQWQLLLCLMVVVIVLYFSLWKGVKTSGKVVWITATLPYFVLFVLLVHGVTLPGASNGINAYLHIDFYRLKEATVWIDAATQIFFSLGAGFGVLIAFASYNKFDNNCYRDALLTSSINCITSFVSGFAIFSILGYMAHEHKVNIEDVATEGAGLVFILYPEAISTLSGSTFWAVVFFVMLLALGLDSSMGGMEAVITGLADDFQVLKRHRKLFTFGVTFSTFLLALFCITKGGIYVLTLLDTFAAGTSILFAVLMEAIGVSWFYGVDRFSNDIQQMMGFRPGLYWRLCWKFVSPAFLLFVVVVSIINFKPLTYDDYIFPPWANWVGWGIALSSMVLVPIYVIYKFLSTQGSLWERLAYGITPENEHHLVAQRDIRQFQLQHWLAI

## CCCCS(=N)(=O)CCC(N)C(=O)O (stereo not drawn) [BSO, buthionine sulfoximine]
SK—N-BE(2c) (high NET); 25 μM BSO
  glutathione depletion compared to controls: 54%
MCF7 (no NET); 25 μM BSO
  glutathione depletion compared to controls: 42%

## N=C(N)NCc1ccc(CBr)c(I)c1 [Bromomethyl-MIBG]
[1]
  Half-life: 42.5 ± 0.7 min
  Half-life w/10 eq GSH: <0.083 min

## N=C(N)NCc1ccc(CCl)c(I)c1 [Chloromethyl-MIBG]
[1]; 1% DMSO in water, room temperature, estimated
  half-life of drug solution: > 600 min
[1]
  Half-life: 580 ± 25 min
  Half-life w/10 eq GSH: 0.843 ± 0.0533 min
NET
  displacement of [125I]MIBG (specific cell-bound radioactivity): 83%
SK—N-BE(2c) (high NET); 5 μM chloromethyl-MIBG
  glutathione depletion compared to controls: about 30%
SK—N-BE(2c) (high NET); 25 μM at t=0, measured at 4 hrs
  glutathione concentration relative to control: 50%
MCF7 (no NET); 5 μM chloromethyl-MIBG
  glutathione depletion compared to controls: 8%
SK-N-BE(2c) (NET ++++); [3]
  IC50: 5 µM
SK-N-BE(2c) (NET ++++); [4]
  IC50: 5.7 ± 1.5 µM
SK-N-BE(2c) (NET ++++); [5]
  IC50: 4.63 ± 1.58 µM
SK-N-BE(2c) (NET ++++); [6]
  IC50: 14.3 ± 1.7 µM
SK-N-BE(2c) (NET ++++); [7]
  IC50: 4.6 ± 1.6 µM
SK-N-BE(2c) (NET ++++); [8]
  IC50: 3.2 ± 0.6 µM
SK-N-BE(2c) (NET ++++); with vs without desipramine
  increase in IC50 in presence of desipramine: ~5 fold
SK-N-MC (NET ++)
  IC50: 25 µM
MCF7 (NET 0); [3]
  IC50: 50 µM
MCF7 (NET 0); [4]
  IC50: 56.9 ± 6.2 µM
MCF7 (NET 0); [5]
  IC50: 14.3 ± 2.13 µM
MCF7 (NET 0); [6]
  IC50: 20.2 ± 1.9 µM
MCF7 (NET 0); [7]
  IC50: 14.3 ± 2.1 µM
MCF7 (NET 0); [8]
  IC50: 19.8 ± 1.3 µM
IMR32 (NET 0/+)
  IC50: 63 µM
SK-N-SH (NET ++); [9]
  IC50: 18.4 ± 9.1 µM
SK-N-SH (NET ++); 48 hr assay, single agent, Table 4
  IC50: 18.4 ± 9.1 µM
[2]; 5-20 mg/kg single i.v. dose, 21 days
  animal deaths over the course of the study: no animal deaths
[2]; HRLN female nu/nu mice, single i.v. dose, 21 days follow-up
  MTD: > 20 mg/kg
[2]; [10]
  adverse signs upon drug injection: signs of hypoactivity, labored breathing, darkening of skin color, and/or seizures/tremors
  time for adverse symptoms to go away: ≤ 30 s

## N=C(N)NCc1cccc(I)c1 [MIBG, meta-iodobenzylguanidine]
SK-N-BE(2c) (NET ++++); [4]
  IC50: 167 µM and 200 µM
SK-N-BE(2c) (NET ++++); [5]
  IC50: 142 ± 21 µM
MCF7 (NET 0); [4]
  IC50: 227 µM and 232 µM
MCF7 (NET 0); [5]
  IC50: 137 ± 27 µM
SK-N-SH (NET ++); [9]
  IC50: 190 ± 22 µM

## N=C(N)NCc1cccc([131I])c1 [MIBG, meta-iodobenzylguanidine]
NET
  displacement of [125I]MIBG (specific cell-bound radioactivity): 100%
SK—N-BE(2c) (high NET); concentrations up to 25 μM, incubation up to 4 hrs
  effect on glutathione levels: did not significantly affect glutathione levels
